# Assay results as given in patent US7977317B2, “Compositions and methods for modulating blood-brain barrier transport” (Raptor Pharmaceutical Inc., priority 2001, dated 2011).
# Legend:
# [1] = tested on: BBCEC monolayers; test: Transcytosis across BBCEC monolayers (in vitro BBB model); type: cell-based, bovine
# From the text: FIG. 10 assesses the ability of several agents to interfere with p97 transyctosis. FIG. 10a, transcytosis of I125-P97 was compared in the presence of cold p97 (5 micromolar), Lf (5 micromolar), and Tf (5 micromolar). […] FIG. 10c, RAP, a known poly-peptide inhibitor of the LDL-Receptor family was applied to the cells (25 micrograms/ml).
# (§1) FIG. 11 examines the accumulation and transcytosis of p97. FIG. 11a, of [^125I]-p97, [^125I]-BSA and [^125I]-holo-transferrin one hour after i.v. injection. The radioactivity in brain was compared between the three compounds. (n=3); FIG. 11b, Accumulation of p97 and transferrin into the mouse brain parenchyma. In situ brain perfusion was performed with human [^125I]-p97 or [^125I]-holo-transferrin at a final concentration of 10 nM via a catheter inserted in the right common carotid artery. The volume of distribution (VD) of [^125I]-proteins were obtained in the whole brain homogenate (white bars), in brain capillaries (solid bars) and in brain parenchyma (hatched bars) after isolation of the right hemisphere and capillary depletion. Results were obtained for p97 (n=10) and for holo-transferrin (n=6); FIG. 11c, Transcytosis of p97 across BBCEC monolayers. Transcytosis experiments were performed 37° C. (open circles) and 4° C. (closed circles) with BBCEC monolayers. [^125I]-p97 (1 mg/ml) was added to the upper side of the cell-covered filter. One representative experiment is shown (n=4); FIG. 11d, Preferential transport of p97 across the BBCEC monolayers. Apical-to-basal and basal-to-apical transport of [^125I]-p97 (25 nM) was measured for 2 hrs at 37° C. At the end of the experiment, [^125I]-p97 was assessed in the lower or upper chambers of each well by TCA precipitation (n=4).
# FIG. 13 illustrates the transcytosis and accumulation of p97 and transferrin in BBCEC monolayers. FIG. 13a, Transcytosis experiments were performed at 37° C. (solid bars) or 4° C. (white bars). [^125I]-p97 or bovine [^125I]-holo-transferrin (1 mg/ml) was added to the upper side of the cell-covered filter. At the end of the experiment, radiolabelled proteins were measured in the lower chamber of each well by TCA precipitation (n=4). Controls were also performed at 37° C. with denatured [^125I]-p97 or bovine [^125I]-holo-transferrin boiled for 30 min (grey bars) (n=2); FIG. 13b, Biospecific interaction analysis was performed with native or boiled p97 for the indicated times. MAb L235 (5 μg) was immobilized on a sensor chip (SM5) using standard procedures incorporating NHS, EDC and ethanolamine. Native and boiled p97 (5 to 30 min) diluted at 1 mg/ml in Ringer/Hepes was cooled and injected into the BIAcore. The surface plasmon resonance response obtained for native p97 and boiled p97 was plotted (in relative units (RU)) as a function of time; FIG. 13c, The accumulation of both proteins into BBEC cells were also measured. Briefly, after incubation at 37° C. (solid bars) or 4° C. (white bars) with either [^125I]-protein, cells were washed four times with cold PBS. Accumulation of both denatured proteins (grey bars) was also measured at 37° C. Filters were then removed, and the radioactivity associated with the cells was quantified (n=3).
# FIG. 14 illustrates the stability of p97 and integrity of the BBCEC monolayers following p97 transcytosis. FIG. 14a, Transcytosis experiments were performed at 37° C. and 4° C. by adding p97 (1 mg/ml) to the upper compartment. At the end of the experiment, 50 μl from each lower chamber was used for SDS-polyacrylamide gel electrophoresis. After electrophoresis, the gels were stained with Coomassie Blue. A standard curve was also made with known amounts of recombinant p97 (0-2 μg); FIG. 14b. The gels were dried and scanned to quantify the amount of intact p97 that crossed the BBCEC monolayers at 37° C. and 4° C. (n=3); FIG. 14c, Effect of p97 on sucrose permeability of BBCE cell monolayers co-cultured with astrocytes. […]
# [2] = Brain uptake one hour after i.v. injection; type: in vivo; conditions: mice, one hour after i.v. injection of [125I]-protein (FIG. 11a)
# Description: as §1, with “[^125I]-p97 (1 mg/ml) was added to the upper side of the cell-covered filter. One representative experiment is shown (n=4); FIG. 11d, Preferential transport of p97 across the BBCEC monolayers.” left out
# A. Brain uptake and in situ brain perfusion. […] The serum and brain samples were collected and the levels of radioactivity were measured. […]
# [3] = target: BBCEC monolayers; conditions: +saponin, published value; cited from earlier work
# [4] = tested on: BBCEC monolayers; test: Accumulation of ligands in BBCEC monolayers; type: cell-based, bovine; conditions: FIG. 7
# Description: FIG. 7 illustrates the results of experiments where the ligands p97, Lf and Tf were heated or not heated prior to the binding study. In all cases, binding experiments were conducted in the transwell apparatus as described previously, with the exception that binding was conducted at either 4° C. or at 37° C. For the 37° C. trial, a separate experiment was conducted where the ligand was boiled for 30 mins then rapidly cooled prior to administration on the transwell plates.
# FIG. 13 illustrates the transcytosis and accumulation of p97 and transferrin in BBCEC monolayers. FIG. 13a, Transcytosis experiments were performed at 37° C. (solid bars) or 4° C. (white bars). [^125I]-p97 or bovine [^125I]-holo-transferrin (1 mg/ml) was added to the upper side of the cell-covered filter. At the end of the experiment, radiolabelled proteins were measured in the lower chamber of each well by TCA precipitation (n=4). […] The surface plasmon resonance response obtained for native p97 and boiled p97 was plotted (in relative units (RU)) as a function of time; FIG. 13c, The accumulation of both proteins into BBEC cells were also measured. […] Accumulation of both denatured proteins (grey bars) was also measured at 37° C. Filters were then removed, and the radioactivity associated with the cells was quantified (n=3). […]
substance,measurement,setting,value
"transferrin: transferrin (Tf), iron-binding serum protein used as comparator and competitor",Effect of heat-denaturation on passage through BBCEC monolayers,"[1]; boiled 30 min, 37° C. (FIG. 13a)",reduced the passage
same,Effect on transcytosis of 125I-p97,"[1]; competitor 5 micromolar (FIG. 10a, 10b)",only the cold p97 successfully reduced
same,Brain/serum ratio,[2],0.008
same,Kd,[3],0.011 µM
same,Accumulation in BBB model cells,[4],very little accumulation
